Test results: patent US12661410B2, “Compounds for targeted degradation of RET” (C4 Therapeutics, Inc., priority 2020, dated 2026)
Substitutions are numbered along the chain they refer to.

Key:
RET(KD: 658-1114 G810R) = target: T1, RET(KD: 658-1114 G810R) (Homo sapiens, UniProt P07949, G810R); assay: HiBiT-Degradation, RET G810R degradation assay (Nano-Glo HiBiT Lytic), 293T.165 cells; assay type: cell-based; conditions: for Emax / DC50: 6.0 hours; for Emax: read-out: 293T.165 RET(KD: 658-1114 G810R) 6.0 hours (Emax); for DC50: read-out: 293T.165 RET(KD: 658-1114 G810R) 6.0 hours (DC50)
T1 construct: 658-1114; expressed in transfected cells; host or cells: 293T.165 (293T cells, generated in-house)
T1 sequence (P07949 658-1114 G810R): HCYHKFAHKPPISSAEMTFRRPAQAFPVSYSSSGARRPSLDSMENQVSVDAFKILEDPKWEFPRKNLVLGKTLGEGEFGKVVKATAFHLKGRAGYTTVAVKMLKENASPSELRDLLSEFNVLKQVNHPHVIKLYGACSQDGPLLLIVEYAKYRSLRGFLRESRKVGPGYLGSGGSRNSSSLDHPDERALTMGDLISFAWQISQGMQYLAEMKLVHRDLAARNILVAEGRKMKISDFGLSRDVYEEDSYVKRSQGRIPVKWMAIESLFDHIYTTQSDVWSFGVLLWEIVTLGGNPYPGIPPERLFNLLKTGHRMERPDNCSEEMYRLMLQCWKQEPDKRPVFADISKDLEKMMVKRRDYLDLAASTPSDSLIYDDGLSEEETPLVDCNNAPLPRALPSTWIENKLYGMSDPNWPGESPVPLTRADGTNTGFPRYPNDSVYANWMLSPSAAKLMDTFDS
In short: (§1)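 Engineered 293T cells carry a HiBiT tag on the RET kinase domain, either wild type (line 293T.144) or G810R (line 293T.165). Compounds act for 6 h across a 10 μM-top, half-log 11-point range. Lytic HiBiT luminescence gives remaining protein, fitted for DC50 and Emax.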

RET (658-1114) = target: T2, RET (658-1114) (Homo sapiens, UniProt P07949); assay: HiBiT-Degradation, RET wild-type degradation assay (Nano-Glo HiBiT Lytic), 293T.144 cells; assay type: cell-based; conditions: for Emax / DC50: 6.0 hours; for Emax: read-out: 293T.144 RET (658-1114) 6.0 hours (Emax); for DC50: half-maximal degradation concentration, read-out: 293T.144 RET (658-1114) 6.0 hours (DC50)
T2 construct: 658-1114; expressed in transfected cells; host or cells: 293T.144 (293T cells, generated in-house)
T2 sequence (P07949 658-1114): T1 sequence (P07949 658-1114 G810R) with R153G
In short: as §1

[1] = half-maximal degradation concentration

| 293T.165 RET(KD: 658-1114 G810R) 6.0 hours (IP) [nM] (RET(KD: 658-1114 G810R)) | Emax (RET(KD: 658-1114 G810R); % remaining protein) [%] | DC50 (RET(KD: 658-1114 G810R); [1]) [nM] | 293T.144 RET (658-1114) 6.0 hours (IP) [nM] (RET (658-1114)) | Emax (RET (658-1114); % remaining protein) [%] | DC50 (RET (658-1114)) [nM] | 293T.165 RET(KD: 658-1114 G810R) 6.0 hours (Emax) (RET(KD: 658-1114 G810R); % remaining protein) | 293T.165 RET(KD: 658-1114 G810R) 6.0 hours (DC50) [nM] (RET(KD: 658-1114 G810R); [1]) | 293T.144 RET (658-1114) 6.0 hours (Emax) (RET (658-1114); % remaining protein) | SMILES |
| --- | --- | --- | --- | --- | --- | --- | --- | --- | --- |
| ++++ (<50 nM = ++++) | – | – | ++++ (<50 nM = ++++) | – | < 50 | ++++ (<30% = ++++) | ++++ (<50 nM = ++++) | ++++ (<30% = ++++) | CCC1(C(=O)NC(C)C)CCN(c2ccc(-c3nc(-c4cnn(C5CCC(CCN6CCC(c7ccc(NC8CCC(=O)NC8=O)cc7F)CC6)CC5)c4)cn4ncc(C#N)c34)cn2)CC1 (stereo not drawn) [Compound 181, 1-(5-(3-Cyano-6-(1-((1r, 4r)-4-(2-(4-(4-((2,6-dioxopiperidin-3-yl)amino)-2-fluorophenyl)piperidin-1-yl)ethyl)cyclohexyl)-1H-pyrazol-4-yl)pyrazolo[1,5-a]pyrazin-4-yl)pyridin-2-yl)-4-ethyl-N-isopropylpiperidine-4-carboxamide] |
| ++++ (<50 nM = ++++) | < 50 | < 50 | ++++ (<50 nM = ++++) | < 30 | < 50 | – | – | – | CCC1(C(=O)NC(C)C)CCN(c2ccc(-c3nc(-c4cnn(C5CCC6(CC5)CN(C(=O)CC5(O)CCN(c7ccc(NC8CCC(=O)NC8=O)cc7F)CC5)C6)c4)cn4ncc(C#N)c34)cn2)CC1 (stereo not drawn) [Compound 182, 1-(5-(3-Cyano-6-(1-(2-(2-(1-(4-((2,6-dioxopiperidin-3-yl)amino)-2-fluorophenyl)-4-hydroxypiperidin-4-yl)acetyl)-2-azaspiro[3.5]nonan-7-yl)-1H-pyrazol-4-yl)pyrazolo[1,5-a]pyrazin-4-yl)pyridin-2-yl)-4-ethyl-N-isopropylpiperidine-4-carboxamide] |
| ++++ (<50 nM = ++++) | < 30 | < 50 | ++++ (<50 nM = ++++) | < 30 | < 50 | – | – | – | CCC1(C(=O)NC(C)C)CCN(c2ccc(-c3nc(-c4cnn(C5CC6(C5)CN(C(=O)CC5(O)CCN(c7ccc(NC8CCC(=O)NC8=O)cc7F)CC5)C6)c4)cn4ncc(C#N)c34)cn2)CC1 (stereo not drawn) [Compound 183, 1-[5-[3-cyano-6-[1-[2-[2-[1-[4-[(2,6-dioxo-3-piperidyl)amino]-2-fluoro-phenyl]-4-hydroxy-4-piperidyl]acetyl]-2-azaspiro[3.3]heptan-6-yl]pyrazol-4-yl]pyrazolo[1,5-a]pyrazin-4-yl]-2-pyridyl]-4-ethyl-N-isopropyl-piperidine-4-carboxamide] |
| ++++ (<50 nM = ++++) | < 30 | < 50 | ++++ (<50 nM = ++++) | < 30 | < 50 | – | – | – | CCC1(C(=O)NC(C)C)CCN(c2ccc(-c3nc(-c4cnn(C5CN(C(=O)CC6(O)CCN(c7ccc(NC8CCC(=O)NC8=O)cc7F)CC6)C5)c4)cn4ncc(C#N)c34)cn2)CC1 (stereo not drawn) [Compound 184, 1-[5-[3-cyano-6-[1-[1-[2-[1-[4-[(2,6-dioxo-3-piperidyl)amino]-2-fluoro-phenyl]-4-hydroxy-4-piperidyl]acetyl]azetidin-3-yl]pyrazol-4-yl]pyrazolo[1,5-a]pyrazin-4-yl]-2-pyridyl]-4-ethyl-N-isopropyl-piperidine-4-carboxamide] |

The next lines start with the compound.

| SMILES | 293T.165 RET(KD: 658-1114 G810R) 6.0 hours (IP) [nM] (RET(KD: 658-1114 G810R)) | Emax (RET(KD: 658-1114 G810R); % remaining protein) [%] | DC50 (RET(KD: 658-1114 G810R); [1]) [nM] | 293T.144 RET (658-1114) 6.0 hours (IP) [nM] (RET (658-1114)) | Emax (RET (658-1114); % remaining protein) [%] | DC50 (RET (658-1114)) [nM] | 293T.165 RET(KD: 658-1114 G810R) 6.0 hours (Emax) (RET(KD: 658-1114 G810R); % remaining protein) | 293T.165 RET(KD: 658-1114 G810R) 6.0 hours (DC50) [nM] (RET(KD: 658-1114 G810R); [1]) | 293T.144 RET (658-1114) 6.0 hours (Emax) (RET (658-1114); % remaining protein) |
| --- | --- | --- | --- | --- | --- | --- | --- | --- | --- |
| CCC1(C(=O)NC(C)C)CCN(c2ccc(-c3nc(-c4ccc(N5CCN(C(=O)CC6(O)CCN(c7ccc8c(N9CCC(=O)NC9=O)nn(C)c8c7)CC6)CC5)cc4)cn4ncc(C#N)c34)cn2)CC1 [Compound 173, 1-(5-(3-cyano-6-(4-(4-(2-(1-(3-(2,4-dioxotetrahydropyrimidin-1(2H)-yl)-1-methyl-1H-indazol-6-yl)-4-hydroxypiperidin-4-yl)acetyl)piperazin-1-yl)phenyl)pyrazolo[1,5-a]pyrazin-4-yl)pyridin-2-yl)-4-ethyl-N-isopropylpiperidine-4-carboxamide] | +++ (<100 nM = +++) | < 50 | < 100 | ++++ (<50 nM = ++++) | < 30 | < 50 | – | – | – |
| CCC1(C(=O)NC(C)C)CCN(c2ccc(-c3nc(-c4ccc(C5CCN(C(=O)CN6CC(c7ccc(NC8CCC(=O)NC8=O)cc7F)C6)CC5)cc4)cn4ncc(C#N)c34)cn2)CC1 (stereo not drawn) [Compound 174, 1-[5-[3-cyano-6-[4-[1-[2-[3-[4-[(2,6-dioxo-3-piperidyl)amino]-2-fluoro-phenyl]azetidin-1-yl]acetyl]-4-piperidyl]phenyl]pyrazolo[1,5-a]pyrazin-4-yl]-2-pyridyl]-4-ethyl-N-isopropyl-piperidine-4-carboxamide] | ++++ (<50 nM = ++++) | < 50 | < 100 | ++++ (<50 nM = ++++) | < 30 | < 50 | – | – | – |
| N#Cc1cnn2cc(-c3ccc(C4CCN(C(=O)CC5(O)CCN(c6ccc(NC7CCC(=O)NC7=O)cc6F)CC5)CC4)cc3)nc(-c3ccc(N4CCN(C(=O)c5ccon5)CC4)nc3)c12 (stereo not drawn) [Compound 175, 6-[4-[1-[2-[1-[4-[(2,6-dioxo-3-piperidyl)amino]-2-fluoro-phenyl]-4-hydroxy-4-piperidyl]acetyl]-4-piperidyl]phenyl]-4-[6-[4-(isoxazole-3-carbonyl)piperazin-1-yl]-3-pyridyl]pyrazolo[1,5-a]pyrazine-3-carbonitrile] | ++++ (<50 nM = ++++) | < 50 | < 100 | ++++ (<50 nM = ++++) | < 30 | < 50 | – | – | – |
| N#Cc1cnn2cc(-c3cnn(C4CCN(C(=O)CC5(O)CCN(c6ccc(NC7CCC(=O)NC7=O)cc6F)CC5)CC4)c3)nc(-c3ccc(N4CC5CC(C4)N5Cc4ccccc4)nc3)c12 (stereo not drawn) [Compound 176, 4-(6-(6-benzyl-3,6-diazabicyclo[3.1.1]heptan-3-yl)pyridin-3-yl)-6-(1-(1-(2-(1-(4-((2,6-dioxopiperidin-3-yl)amino)-2-fluorophenyl)-4-hydroxypiperidin-4-yl)acetyl)piperidin-4-yl)-1H-pyrazol-4-yl)pyrazolo[1,5-a]pyrazine-3-carbonitrile] | ++++ (<50 nM = ++++) | < 30 | < 50 | ++++ (<50 nM = ++++) | < 30 | < 50 | – | – | – |
| N#Cc1cnn2cc(-c3ccc(N4CCN(C(=O)CC5(O)CCN(c6ccc(NC7CCC(=O)NC7=O)cc6F)CC5)CC4)cc3)nc(-c3ccc(N4CC5CC(C4)N5Cc4ccccc4)nc3)c12 (stereo not drawn) [Compound 177, 4-(6-(6-benzyl-3,6-diazabicyclo[3.1.1]heptan-3-yl)pyridin-3-yl)-6-(4-(4-(2-(1-(4-((2,6-dioxopiperidin-3-yl)amino)-2-fluorophenyl)-4-hydroxypiperidin-4-yl)acetyl)piperazin-1-yl)phenyl)pyrazolo[1,5-a]pyrazine-3-carbonitrile] | ++++ (<50 nM = ++++) | < 30 | < 100 | ++++ (<50 nM = ++++) | < 30 | < 50 | – | – | – |
| CC(C)CC(=O)N1CCN(c2ccc(-c3nc(-c4cnn(C5CCN(C(=O)CC6CCN(c7ccc(NC8CCC(=O)NC8=O)cc7F)CC6)CC5)c4)cn4ncc(C#N)c34)cn2)CC1 (stereo not drawn) [Compound 185, 6-(1-(1-(2-(1-(4-((2,6-dioxopiperidin-3-yl)amino)-2-fluorophenyl)piperidin-4-yl)acetyl)piperidin-4-yl)-1H-pyrazol-4-yl)-4-(6-(4-(3-methylbutanoyl)piperazin-1-yl)pyridin-3-yl)pyrazolo[1,5-a]pyrazine-3-carbonitrile] | ++++ (<50 nM = ++++) | < 50 | < 100 | ++++ (<50 nM = ++++) | < 30 | < 50 | – | – | – |
